Measurements from US7141648B2, “Synthesis of cyclosporin analogs” (priority 2001, dated 2006).
Like-named read-outs stand apart in the source and are kept apart here.

Tests used:
[1] = tested on: hearts transplanted from Wistar Furth rats to Lewis rats; assay: rat heart transplant model; assay type: in vivo
Description: If graft dysfunction was noted during the 30-day post-transplantation period, the animal was sacrificed. If the animal survived longer than 30 days post-transplantation, the test and control articles were discontinued and the animal was allowed to continue until graft dysfunction or up to 100 days post-transplantation.

[2] = tested on: islets from a CBA/J mouse transplanted into diabetic Balb/c mouse recipients; assay: islet cell allotransplantation mouse model; settings: especially apparent at 25 mg/kg/day
Description: Blood glucose was monitored daily until the time of graft failure, as defined by a glucose level greater than 17 mmol/L on two consecutive days.

[3] = tested on: Male DBA/1 Lac J mice immunized with chick type II collagen; assay: collagen-induced arthritis model in the mouse; assay type: in vivo; settings: for negative erosion scores compared to vehicle treatment group: PIP joint
Description: Male DBA/1 Lac J mice, kept under virus antibody free conditions, were immunized subcutaneously at 8 to 10 weeks of age with 100 microgram of chick type II collagen, emulsified in Freund's complete adjuvant. […] Animals assigned to the treatment protocol (12/group) were dosed starting on the day of disease onset (˜Day 28) until sacrifice on Day 38.
Evaluated parameters included mortality, serum creatinine, histology, and outcome assessments, such as clinical scoring (visual), hind paw swelling, histological scoring, erosion scoring, and immunohistochemistry.
Erosion scoring was done in a blinded manner by examining sagittal sections of the proximal interphalangeal (PIP) joint of the middle digit for the presence or absence of erosions (defined as demarcated defects in cartilage or bone filled with inflammatory tissue). This approach allowed for comparisons of the same joint.

[4] = tested on: New Zealand White rabbits immunized with ovalbumin; assay: antigen-induced arthritis model in the rabbit; assay type: in vivo
Description: New Zealand White rabbits, maintained under specific pathogen free conditions, were immunized with 10 mg of ovalbumin in saline emulsified with Freund's complete adjuvant that was given intramuscularly and subcutaneously into several sites in the nape of the neck. Fourteen days later, all animals started receiving 2 daily intra-articular injections of 5 mg ovalbumin and 65 ng of human recombinant transforming growth factor 2 in saline.
Animals assigned to the treatment protocol (8/group) were dosed starting on the day of disease onset (˜Day 28) until sacrifice on Day 42.
Evaluated parameters included mortality, body weight, serum creatinine, histology, and outcome assessments such as knee joint swelling, synovial fluid counts, gross postmortem analysis, and histology.

[5] = tested on: rats, dogs, and primates; assay: repeated-dose oral toxicity studies; assay type: in vivo
[6] = for Area under the curve / Cmax: male rabbits, i.v. 10 mg/kg/day, mean ± SD
Description: (§1) On Days 1 and 7, blood samples were collected prior to drug administration and at 0.5, 1, 2, 4, 8, 12, 18, and 24 hours post-dose to generate a pharmacokinetic profile. Other evaluated parameters included clinical observations, body weight, food consumption, hematology, clinical chemistry, gross pathology, and histopathological examination of selected tissues/organs.
Blood samples were analyzed via high performance liquid chromatography coupled with mass spectrometry (LCMS).

[7] = tested on: rabbits; assay: toxicokinetic/nephrotoxicity study in the rabbit model, 30 days
Description: as §1

C=C/C=C/C[C@@H](C)[C@@H](O)[C@H]1C(=O)N[C@@H](CC)C(=O)N(C)CC(=O)N(C)[C@@H](CC(C)C)C(=O)N[C@@H](C(C)C)C(=O)N(C)[C@@H](CC(C)C)C(=O)N[C@@H](C)C(=O)N[C@H](C)C(=O)N(C)[C@@H](CC(C)C)C(=O)N(C)[C@@H](CC(C)C)C(=O)N(C)[C@@H](C(C)C)C(=O)N1C [ISATX247]
graft function after discontinuation of dosing ([1]; 100 days post-transplant (70 days post discontinuation of dosing), a number of animals): still had functioning grafts at 100 days post-transplant | increase of survival time over Cyclosporine A ([1]; optimal dose of 1.75 mg/kg/day): approximately 3 fold | toxicity compared to cyclosporine A as the dose level increased [2]: less toxic than cyclosporine A | negative erosion scores compared to vehicle treatment group ([3]; 250 μg/mouse i.p. daily): higher negative erosion scores | prevention of the development of joint erosions ([3]; 500 μg/mouse): significantly prevent the development of joint erosions | negative erosion scores compared to vehicle treatment group ([3]; 500 μg/mouse i.p. daily): significantly higher | synovial fluid counts ([4]; prevention protocol): significant reductions | synovial histopathological scores compared to vehicle control ([4]; prevention protocol, after 28 days of therapy, s.c.): significant decrease | potency compared to cyclosporine A in treatment and prevention of arthritis ([4]; rabbit, in vivo): equivalent or potentially more potent than cyclosporine A | macroscopic arthritis score ([4]; treatment protocol): significant reduction | synovial histopathological scores of animals with established arthritis compared to vehicle controls ([4]; treatment protocol, 14 days of treatment): Significant amelioration | only toxicological effect noted in all species [5]: diarrhea/loose feces | tolerability [5]: well-tolerated | pharmacokinetic parameters in female rabbits compared with male rabbits ([6]; female rabbits, 10 mg/kg/day, exception: maximum concentration on Day 7): not significantly different | Area under the curve ([6]; Day 1): 5659 ± 1309 ng·h/mL | Cmax ([6]; Day 1): 1915 ± 149 ng/mL | Area under the curve ([6]; Day 7): 5697 ± 1373 ng·h/mL | Cmax ([6]; Day 7): 1959 ± 470 ng/mL | examination of organs, female rabbits ([7]; 15 mg/kg, 3 female rabbits that completed the study): No changes | examination of organs, male rabbits ([7]; 15 mg/kg, male rabbits): decrease in spermatogenesis | Percent Change in Serum Creatinine Levels Over Baseline ([7]; male rabbits, 10 mg/kg, Day 15): +1% | Percent Change in Serum Creatinine Levels Over Baseline ([7]; male rabbits, 10 mg/kg, Day 30): +10% | Percent Change in Serum Creatinine Levels Over Baseline ([7]; male rabbits, 15 mg/kg, Day 15): −19% | Percent Change in Serum Creatinine Levels Over Baseline ([7]; male rabbits, 15 mg/kg, Day 30): −11% | hematological parameters ([7]; rabbits): No significant changes
